Holding throughout (assay): NCI anticancer screen, dose series, 48 h
In experiment [1] the test system is MCF7.
The test system of experiment [2] is SF-295.
In experiment [3] the test system is SNB-75.
Experiment [4] relates to HT-29.
The subject of experiment [5] is SNB-19.
Experiment [6] has as its system SR.
Experiment [7] has as its system CAKI-1.
For experiment [8], the system named is K562.
Experiment [9] concerns U-251.
Experiment [10] relates to NCI/ADR-RES.
The test system of experiment [11] is SK-OV-3.
Experiment [12] deals with NCI-H226.
The test system of experiment [13] is SK-MEL-2.
Experiment [14] concerns HOP-92.
For experiment [15], the system named is HCT-116.
The subject of experiment [16] is CCRF-CEM.
The subject of experiment [17] is HOP-62.
For experiment [18], the system named is TK-10.
Experiment [19] relates to HL-60.

The structures appear in SMILES notation.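 Five concentrations, 48 hours, 96-well plates. GI50: concentration for 50% inhibition of growth.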 Active and inactive are the calls of the source. Rule as the data show it: active = GI50 up to about 1.1 µM and inactive = higher. Where only a bound is given, the exact number is not on record here.

`C[C@]12OC[C@H](c3ccccc3)N1C(=O)C1[C@H]2CC12SCCS2` (some centres not stated): the GI50 in experiment [1], in experiment [2], in experiment [3], in experiment [4], in experiment [5] and in experiment [6] was > 100 µM (inactive) throughout. Moreover, the GI50 in [7], in experiment [8], in [9], in experiment [10], in [11] and in experiment [12] was > 100 µM (inactive) in each case. The GI50 in [13], in experiment [14], in [15], in experiment [16], in [17] and in experiment [18] was > 100 µM (inactive) each time.

Consider `CN(C)CCNc1nc2ccccc2c2c1C(=O)c1ccccc1-2`, for which the GI50 is 0.0508 µM (active) in experiment [1]; 0.225 µM (active) in experiment [2]; 0.564 µM (active) in experiment [3]; 0.191 µM (active) in experiment [4]; 0.47 µM (active) in experiment [5]; 0.124 µM (active) in experiment [7]. Moreover, the GI50 is 0.163 µM (active) in [8]; 0.219 µM (active) in [9]; 0.267 µM (active) in experiment [10]; 0.703 µM (active) in experiment [11]; 0.205 µM (active) in experiment [12]; 0.368 µM (active) in experiment [13]. Further, the GI50 was 0.327 µM (active) in [14]; 0.049 µM (active) in experiment [15]; 0.0923 µM (active) in experiment [16]; 0.233 µM (active) in experiment [17]; 0.513 µM (active) in experiment [18]; < 0.0432 µM (active) in [19].

Regarding `CN(C(=O)Cc1cccc(N=C=S)c1)[C@H]1CCCC[C@@H]1N1CCCC1`, the GI50 in experiment [1] is 13 µM (inactive); in [2], 27.6 µM (inactive); in experiment [3], 14.1 µM (inactive); in experiment [4] it was 11.5 µM (inactive); in experiment [5], 20.6 µM (inactive); in experiment [6] it was 6.73 µM (inactive). Also, the GI50 is 15.4 µM (inactive) in experiment [7]; 7.59 µM (inactive) in experiment [8]; 17.1 µM (inactive) in [9]; 24.8 µM (inactive) in experiment [10]; 25.5 µM (inactive) in experiment [11]; 18.7 µM (inactive) in [13]. Moreover, the GI50 in experiment [14] is 13.8 µM (inactive); in experiment [15], 13 µM (inactive); in [16], 12.5 µM (inactive); in [17], 16.3 µM (inactive); in experiment [18] it was 11.9 µM (inactive).

As to `CC(=O)OCC1OC(N2C(c3ccccc3)=CC(c3ccccc3)C(C#N)=C2S)C(OC(C)=O)C(OC(C)=O)C1OC(C)=O` (configuration not stated), the GI50 is 19.4 µM (inactive) in experiment [1]; 2.04 µM (inactive) in [2]; 10.4 µM (inactive) in experiment [3]; 2.35 µM (inactive) in [4]; 5.96 µM (inactive) in experiment [5]; 42 µM (inactive) in [6]. In addition, the GI50 in experiment [7] is 3.08 µM (inactive); in experiment [8], 3.76 µM (inactive); in experiment [9] it was 3.57 µM (inactive); in [10], 14.3 µM (inactive); in experiment [12] it was 12.7 µM (inactive); in experiment [13], 2.27 µM (inactive). Moreover, the GI50 is 3.81 µM (inactive) in experiment [14]; 5.92 µM (inactive) in [15]; > 61.2 µM (inactive) in experiment [16]; 4.06 µM (inactive) in experiment [17]; 22.2 µM (inactive) in experiment [18].

On to `C/C=C\C(CC(=O)NCC(=O)c1c[nH]c2ccccc12)CC(=O)OC` (configuration not stated), for which the GI50 in experiment [1], in experiment [2], in [3], in experiment [4], in experiment [5] and in [6] was > 100 µM (inactive) each time. The GI50 in [7], in [8], in experiment [9], in experiment [10], in experiment [11] and in [13] was > 100 µM (inactive) each time. Further, the GI50 in experiment [14] is > 100 µM (inactive); in experiment [15], > 100 µM (inactive); in [16] it was 75.2 µM (inactive); in experiment [17], > 100 µM (inactive); in [18], > 100 µM (inactive).

Regarding `C=CC(C)(C)C(=C)C(=O)Nc1ccccc1I`, the GI50 in experiment [1] is > 100 µM (inactive); in experiment [2] it was > 100 µM (inactive); in experiment [3], > 100 µM (inactive); in [4], > 100 µM (inactive); in experiment [5], > 100 µM (inactive); in experiment [6] it was 86.1 µM (inactive). Besides, the GI50 in [7], in [8], in experiment [9], in experiment [10], in [11] and in [12] was > 100 µM (inactive) in each case. Besides, the GI50 is > 100 µM (inactive) in experiment [13]; > 100 µM (inactive) in experiment [14]; 81.8 µM (inactive) in [15]; 19.3 µM (inactive) in experiment [16]; > 100 µM (inactive) in experiment [17].

As for `Nc1nc(=O)n(C2CC(O)C(CO)O2)c2nc(-c3ccc(-c4ccccc4)cc3)cnc12` (configuration not stated), the GI50 in experiment [1] is 15.5 µM (inactive); in experiment [2], 48.5 µM (inactive); in experiment [3] it was 23 µM (inactive); in experiment [4], > 100 µM (inactive); in experiment [5], 29 µM (inactive); in experiment [6] it was 27.7 µM (inactive). Also, the GI50 in experiment [7] was > 100 µM (inactive); in experiment [8] it was 38 µM (inactive); in experiment [9] it was 18.6 µM (inactive); in [10] it was > 100 µM (inactive); in [11], > 100 µM (inactive); in [12], 25.6 µM (inactive). The GI50 was 44.6 µM (inactive) in experiment [13]; 56.2 µM (inactive) in experiment [14]; > 100 µM (inactive) in experiment [15]; 27.6 µM (inactive) in [16]; 27.2 µM (inactive) in [17]; > 100 µM (inactive) in experiment [18].

`CCN(C(=S)N[C@H](C(=O)N[C@@H](C)C(=O)OC)C(C)C)c1ccccc1`: the GI50 in experiment [1] is 87.3 µM (inactive); in [2], > 100 µM (inactive); in experiment [4], 31.5 µM (inactive); in experiment [5] it was > 100 µM (inactive); in [6] it was 18.9 µM (inactive); in [7], > 100 µM (inactive). Moreover, the GI50 in experiment [8] is 22.7 µM (inactive); in experiment [9], > 100 µM (inactive); in experiment [10], > 100 µM (inactive); in experiment [11] it was > 100 µM (inactive); in experiment [12] it was > 100 µM (inactive); in experiment [13], > 100 µM (inactive). The GI50 in experiment [14] is 51.4 µM (inactive); in [15] it was 70.8 µM (inactive); in [16], 27.8 µM (inactive); in [17], 91.6 µM (inactive); in experiment [18], 88.5 µM (inactive).

For `N#Cc1c(-c2ccccc2)cc(Nc2ccc(Cl)cc2)n2c1nc1ccccc12`, the GI50 in [1] is 3.48 µM (inactive); in experiment [2], 3.4 µM (inactive); in experiment [3] it was 5.47 µM (inactive); in experiment [4], 2.14 µM (inactive); in experiment [5], 2.93 µM (inactive); in [6], 2.73 µM (inactive). The GI50 was 3.59 µM (inactive) in [7]; 1.49 µM (inactive) in experiment [8]; 2.49 µM (inactive) in experiment [9]; 2.44 µM (inactive) in experiment [10]; 2.72 µM (inactive) in [11]; 4.45 µM (inactive) in [12]. For the same compound, the GI50 was 2.99 µM (inactive) in experiment [13]; 0.397 µM (active) in experiment [14]; 1.96 µM (inactive) in experiment [15]; 4.66 µM (inactive) in experiment [16]; 3.67 µM (inactive) in experiment [17]; 4.45 µM (inactive) in experiment [18].

On to `CC1=NN(c2nc(N)nc(CO)n2)C(C)(C)C1`, for which the GI50 in [1], in [2], in [3], in experiment [4], in experiment [5] and in experiment [7] was > 100 µM (inactive) each time. Besides, the GI50 in [8], in experiment [9], in experiment [10], in [11], in experiment [12] and in experiment [13] was > 100 µM (inactive) in each case. For the same compound, the GI50 in experiment [14], in experiment [15], in experiment [16], in experiment [17], in experiment [18] and in [19] was > 100 µM (inactive) throughout.

As for `CC(C)[C@H]1NC(=O)[C@H]2N=C(O[C@@H]2C)[C@@H]2CCCN2C(=O)[C@H](Cc2ccccc2)NC(=O)[C@@H]2CSC(=N2)[C@@H](Cc2ccccc2)NC(=O)[C@@H]2CSC1=N2`, the GI50 is > 100 µM (inactive) in experiment [1]; > 100 µM (inactive) in experiment [2]; 84.5 µM (inactive) in [4]; > 100 µM (inactive) in experiment [5]; > 100 µM (inactive) in experiment [6]; > 100 µM (inactive) in experiment [7]. The GI50 in experiment [8] is 92.9 µM (inactive); in [9] it was > 100 µM (inactive); in [10], 86.5 µM (inactive); in [11], > 100 µM (inactive); in [12], > 100 µM (inactive); in [13], 85.9 µM (inactive). Besides, the GI50 in experiment [15] was 90.8 µM (inactive); in experiment [16], > 100 µM (inactive); in experiment [17], > 100 µM (inactive); in experiment [18], > 100 µM (inactive); in experiment [19], > 100 µM (inactive).

For the origin of these results see ChEMBL document CHEMBL1201862, “PubChem BioAssay data set” (2004).
